“And” between values parts separate entries of the source, which are not always exact repeats. Equal values may be shown once.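 In this assay, cells in 96-well plates receive the compound at five concentrations for 48 hours. Endpoints are linearly interpolated between the surrounding concentrations. GI50 is the concentration that inhibits growth by half. TGI: concentration producing complete growth inhibition.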
What was measured:
Test in all cases: NCI anticancer screen, dose series, 48 h
A498 renal = test system: A498 renal
HOP-92 NSCLC = test system: HOP-92 NSCLC
NCI-H23 lung = test system: NCI-H23 lung
OVCAR-5 ovarian = test system: OVCAR-5 ovarian
OVCAR-8 ovarian = test system: OVCAR-8 ovarian
SK-MEL-2 melanoma = test system: SK-MEL-2 melanoma
SR leukemia = test system: SR leukemia
TK-10 renal = test system: TK-10 renal
UACC-257 melanoma = test system: UACC-257 melanoma
MCF7 breast = test system: MCF7 breast

Compound	TGI (A498 renal) [µM]	TGI (HOP-92 NSCLC) [µM]	TGI (NCI-H23 lung) [µM]	TGI (OVCAR-5 ovarian) [µM]	TGI (OVCAR-8 ovarian) [µM]	TGI (SK-MEL-2 melanoma) [µM]	TGI (SR leukemia)	TGI (TK-10 renal) [µM]	TGI (UACC-257 melanoma) [µM]	GI50 (A498 renal) [µM]	GI50 (OVCAR-5 ovarian) [µM]	GI50 (OVCAR-8 ovarian) [µM]	GI50 (SK-MEL-2 melanoma) [µM]	GI50 (TK-10 renal) [µM]	GI50 (SR leukemia) [µM]	GI50 (HOP-92 NSCLC) [µM]	GI50 (MCF7 breast) [µM]	TGI (MCF7 breast) [µM]	GI50 (NCI-H23 lung) [µM]	GI50 (UACC-257 melanoma) [µM]
CCCCN(CCCC)C(=O)C(=O)C(C(=O)C(=O)OC)c1nc2ccccc2o1 (stereo unspecified)	> 100	> 100	> 100	> 100	> 100	> 100	> 100 µM	> 100	> 100	–	–	–	–	–	–	–	–	–	–	–
Cn1cnc([N+](=O)[O-])c1Sc1nccn1-c1ccccc1	> 100	81.1	79.6	> 100	> 100	99.3	62.3 µM	> 100	> 100	–	–	–	–	–	–	–	–	–	–	–
COC(=O)c1oc([N+](=O)[O-])c(-c2ccccc2)c1-c1ccccc1	> 100	> 100	> 100	> 100	> 100	> 100	–	> 100	> 100	–	–	–	–	–	–	–	–	–	–	–
Cc1cc2c(=O)cc(-c3ccc(Cl)c(Cl)c3)oc2c(C(=O)O)c1C	–	–	> 100	> 100	> 100	> 100	–	> 100	> 100	–	–	–	–	–	–	–	–	–	–	–
Cc1cc2c(cc1C)[n+](=O)c(C(=O)CC(=O)C(=O)Nc1ccccc1C)c(C)n2[O-]	> 100	> 100	> 100	> 100	> 100	> 100	> 100 µM	> 100	> 100	–	–	–	–	–	–	–	–	–	–	–
O=C([CH-]C(=O)c1ccccc1)c1ccccc1.O=C([CH-]C(=O)c1ccccc1)c1ccccc1.[CH2-]CCC.[CH2-]CCC.[Sn+4]	1.5	–	–	3.51	2.46	0.883	–	1.11	–	0.369	2.06	0.939	0.223	0.38	–	–	–	–	–	–
N#CC1(C#N)C2C=CC(C3CC=CC32)C1(C#N)C#N (stereo unspecified)	16.9	14.8	19.8	16.8	–	32.1	7.12 µM and 17.6 µM	3.61	21	–	–	–	–	–	7.6	–	–	–	–	–
CN(CC(=O)O)S(=O)(=O)c1ccc(Cl)cc1	> 100	> 100	> 100	> 100	> 100	> 100	–	> 100	> 100	–	–	–	–	–	–	–	–	–	–	–
c1ccc2c(CNCCCN3CCN(CCCNCc4cccc5ccccc45)CC3)cccc2c1	22.9	4.65	23.6	5.32	4.03	3.02	–	2.95	3.34	–	–	–	–	–	–	–	–	–	–	–
N#CCC(=O)N/N=C(/C(=O)Nc1ccccc1)C1C(=O)N(c2ccccc2)N=C1N (stereo unspecified)	> 100	> 100	> 100	> 100	> 100	> 100	> 100 µM	> 100	> 100	–	–	–	–	–	–	–	–	–	–	–
Cc1cc2c(=O)cc(-c3ccc(O)cc3)oc2c(C(=O)O)c1C	–	> 100	> 100	> 100	> 100	> 100	> 100 µM	> 100	> 100	–	–	–	–	–	–	–	–	–	–	–
CC12OC(C(=O)C13CC3)C1C(=O)c3cccc(O)c3C(=O)C12 (stereo unspecified)	30.4	> 100	22.7	> 66.3	> 38.5	> 100	–	30.6	50.8	16.3	24.5	8.12	47.3	8.82	–	31.1	14.3	> 57.9	7.55	19.6
CC1=CC=C2C(C)(C)CC[C@@H]3OC(=O)[C@H]1[C@]23C	> 100	> 100	> 100	> 100	> 100	> 100	> 100 µM	> 100	> 100	–	–	–	–	–	–	–	–	–	–	–
CCOC(=O)c1c2c(n(Cc3ccccc3)c1C)-c1nc[nH]c1C(=O)C2=O	30.1	18.9	–	–	28	32.2	3.6 µM	31.3	30	16.3	–	14.8	17.7	16.2	1.29	0.0891	–	–	–	16.4
Cc1cc2c(=O)cc(-c3ccc(C(=O)O)cc3)oc2c(C(N)=O)c1C	> 100	> 100	> 100	> 100	> 100	> 100	–	> 100	> 100	–	–	–	–	–	–	–	–	–	–	–
Cc1cc2c(=O)cc(-c3ccc(Cl)cc3Cl)oc2c(C(=O)O)c1C	–	–	> 100	> 100	> 100	> 100	–	> 100	> 100	–	–	–	–	–	–	–	–	–	–	–
COc1ncnn2ccc(-c3cnc4nc(C)n(Cc5nnc(C(C)F)o5)c4c3)c12 (stereo unspecified)	0.62	2	0.597	–	> 100	0.236	16 µM	> 100	> 100	0.163	0.343	0.245	0.0748	0.367	0.156	0.204	–	–	0.109	0.265
CCC(CO)COC(=O)/C=C/C(=O)OCC(CC)CO (stereo unspecified)	> 100	> 100	> 100	> 100	> 100	> 100	> 95.6 µM	> 100	> 100	–	–	–	–	–	–	–	–	–	–	–
O=[N+]([O-])c1cccc(C=NC23CC4CC(CC(C4)C2)C3)c1	> 100	> 100	> 100	> 100	> 100	> 100	–	> 100	> 100	–	–	–	–	–	–	–	–	–	–	–
CCOc1ccc(N=C2NC(=O)C(CC(=O)Nc3ccc(Cl)cc3Cl)S2)cc1 (stereo unspecified)	> 100	–	> 100	> 100	> 100	> 100	–	> 100	> 100	–	–	–	–	–	–	–	–	–	–	–
CN1C(=O)CNS1(=O)=O	> 100	> 100	> 100	> 100	> 100	> 100	> 100 µM	> 100	> 100	–	–	–	–	–	–	–	–	–	–	–
CNC(=O)N(CCCC(NC(C)=O)C(=O)NCc1ccccc1)Cc1ccccc1 (stereo unspecified)	> 100	> 100	> 100	> 100	> 100	> 100	–	> 100	> 100	–	–	–	–	–	–	–	–	–	–	–

Reference: PubChem BioAssay (NCI)
